Measurements from patent US20190367516A1 (Bayer Pharma Aktiengesellschaft, priority 2015, published 2019).
Like-named read-outs stand apart in the source and are kept apart here.

Biological target: T1, human M2 receptor (Homo sapiens, UniProt P08172)
T1 sequence (P08172 1-466): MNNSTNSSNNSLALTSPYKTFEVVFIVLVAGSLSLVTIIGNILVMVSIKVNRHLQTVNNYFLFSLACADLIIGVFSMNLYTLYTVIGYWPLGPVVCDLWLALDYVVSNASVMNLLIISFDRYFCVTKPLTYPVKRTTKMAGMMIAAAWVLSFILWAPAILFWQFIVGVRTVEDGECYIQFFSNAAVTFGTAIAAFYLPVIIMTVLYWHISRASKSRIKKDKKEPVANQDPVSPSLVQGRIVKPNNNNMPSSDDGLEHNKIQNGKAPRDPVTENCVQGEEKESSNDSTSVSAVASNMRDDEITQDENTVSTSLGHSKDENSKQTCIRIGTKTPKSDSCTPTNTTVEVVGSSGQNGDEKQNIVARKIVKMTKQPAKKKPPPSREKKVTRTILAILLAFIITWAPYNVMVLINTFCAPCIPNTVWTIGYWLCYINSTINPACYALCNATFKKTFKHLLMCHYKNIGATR

[1] = Receptor activity EC50, allosteric potency at EC20 acetylcholine, M2-GIRK1/4 reporter cells, in some cases mean of two or more determinations
[2] = Receptor activity EC50, M2-GIRK1/4 activation test, acetylcholine at EC20, allosteric potency, in some cases mean values from two or more determinations
[3] = read-out: Efficiency, boosting of the acetylcholine effect at EC20 acetylcholine concentration, M2-GIRK1/4 reporter cells

Structure (SMILES)	EC50 [1] [µM]	Emax (read-out: Efficiency) [%]	EC50 [2] [µM]	Emax [3] [%]
CC[C@@H](NC(=O)c1cn(-c2c(Cl)cccc2Cl)c2nc(N3C[C@@H](O)CC3=O)ccc2c1=O)C(F)(F)F [Example 645, 1-(2,6-Dichlorophenyl)-7-[(4S)-4-hydroxy-2-oxopyrrolidin-1-yl]-4-oxo-N-[(2R)-1,1,1-trifluorobutan-2-yl]-1,4-dihydro-1,8-naphthyridine-3-carboxamide]	0.074	83	–	–
CN(C)c1ccc2c(=O)c(C(=O)NC34CCC(C)(CC3)CC4)cn(-c3ccc(F)cc3F)c2n1 [Example 42, 1-(2,4-Difluorophenyl)-7-(dimethylamino)-N-(4-methylbicyclo[2.2.2]oct-1-yl)-4-oxo-1,4-dihydro-1,8-naphthyridine-3-carboxamide]	–	–	0.017	–
CCC(COC(F)(F)F)NC(=O)c1cn(-c2c(F)cc(F)cc2F)c2nc(N3C[C@@H](O)[C@H](O)C3)ccc2c1=O (single isomer, unassigned) [Example 577]	0.02	–	–	100
CCCC(NC(=O)c1cn(-c2ccc(F)cc2F)c2nc(N3CCC(F)(F)C3)ccc2c1=O)C(F)(F)F (racemic) [Example 76, rac-1-(2,4-Difluorophenyl)-7-(3,3-difluoropyrrolidin-1-yl)-4-oxo-N-[1,1,1-trifluoropentan-2-yl]-1,4-dihydro-1,8-naphthyridine-3-carboxamide]	–	–	0.069	–
COC1(C)CN(c2ccc3c(=O)c(C(=O)N[C@H](C4CC4)C(F)(F)F)cn(-c4c(F)cc(F)cc4F)c3n2)C1 [Example 605, N-[(1R)-1-Cyclopropyl-2,2,2-trifluoroethyl]-7-(3-methoxy-3-methylazetidin-1-yl)-4-oxo-1-(2,4,6-trifluorophenyl)-1,4-dihydro-1,8-naphthyridine-3-carboxamide]	0.025	–	–	98
CC(C)(NC(=O)c1cn(-c2c(F)cc(F)cc2F)c2nc(N3CCNC3=O)ccc2c1=O)C(F)F [Example 614, N-(1,1-Difluoro-2-methylpropan-2-yl)-4-oxo-7-(2-oxoimidazolidin-1-yl)-1-(2,4,6-trifluorophenyl)-1,4-dihydro-1,8-naphthyridine-3-carboxamide]	0.036	–	–	94.5
CC[C@@H](NC(=O)c1cn(-c2ccc(F)cc2F)c2nc(N3C(=O)NCC3C)ccc2c1=O)C(F)(F)F (stereo partly drawn) [Example 434, 1-(2,4-Difluorophenyl)-7-[5-methyl-2-oxoimidazolidin-1-yl]-4-oxo-N-[(2R)-1,1,1-trifluorobutan-2-yl]-1,4-dihydro-1,8-naphthyridine-3-carboxamide]	0.061	–	–	92
CC[C@H](NC(=O)c1cn(-c2c(Cl)cc(F)cc2Cl)c2nc(N3CCNC3=O)ccc2c1=O)C(F)(F)F [Example 654, 1-(2,6-Dichloro-4-fluorophenyl)-4-oxo-7-(2-oxoimidazolidin-1-yl)-N-[(2S)-1,1,1-trifluorobutan-2-yl]-1,4-dihydro-1,8-naphthyridine-3-carboxamide]	0.093	–	–	84
O=C(NC12CC3CC(CC(C3)C1)C2)c1cn(-c2ccc(F)cc2F)c2nc(N3CC(F)(F)CCC3=O)ccc2c1=O [Example 171]	–	–	0.03	–
O=C(N[C@@H](C1CC1)C(F)(F)F)c1cn(-c2c(F)cc(F)cc2F)c2nc(N3CCC(O)(CO)CC3)ccc2c1=O [Example 663, N-[(1 S)-1-Cyclopropyl-2,2,2-trifluoroethyl]-7-[4-hydroxy-4-(hydroxymethyl)piperidin-1-yl]-4-oxo-1-(2,4,6-trifluorophenyl)-1,4-dihydro-1,8-naphthyridine-3-carboxamide]	0.03	–	–	90.5
O=C(NC(CC(F)(F)F)C(F)(F)F)c1cn(-c2c(F)cc(F)cc2F)c2nc(N3CCNC3=O)ccc2c1=O (racemic) [Example 586, N-[1,1,1,4,4,4-Hexafluorobutan-2-yl]-4-oxo-7-(2-oxoimidazolidin-1-yl)-1-(2,4,6-trifluorophenyl)-1,4-dihydro-1,8-naphthyridine-3-carboxamide]	0.015	–	–	100
